Where two headings read alike, the source gives them in different places.
Experiments:
MALME3M melanoma cells = experiment: MTS cell viability, MALME3M; format: cell-based, human; details: 4 days
Protocol: (§1) All human cancer cell lines were maintained in RPMI media supplemented with 5% (lung and breast cancer cells) or 10% (melanoma cells) fetal bovine serum. […] Human mammary epithelial cells immortalised with telomerase were maintained in complete MEGM media from Cambrex (East Rutherford, NJ, USA).
(§2) Absorbance at 490 and 650 nm (reference wavelength) was measured by a Spectra Max (Molecular Devices, Sunnyvale, CA, USA) or a FlouroStar Omega (BMG Biosciences, Ortenberg, Germany) plate reader. Data were normalised to the untreated controls (100% viability). Each cell line was tested in 1–5 independent assays, each containing 4–8 replicates. IC50 values were calculated using DIVISA, a high-throughput software, developed in-house (manuscript in preparation), for storing and analysing drug sensitivity assays. Dose–response curves were plotted using a non-linear regression model and IC50s were determined from the fitted curves.

Melanocytes = experiment: MTS cell viability, primary melanocytes; format: cell-based, human; details: 4 days
Protocol: as §1, §2

[1] = system: HBEC16KT human bronchial epithelial cells; experiment: MTS cell viability, HBEC16KT; format: cell-based; details: 4 days
Protocol: as §1, §2

H2085 cells = experiment: MTS cell viability, H2085; format: cell-based, human; details: H2085 NSCLC, 4 days
Protocol: as §1, §2

[2] = biological target: purified recombinant HDAC1 (Homo sapiens, UniProt Q13547); details: 50 nM
Text: (§3) Cell extracts or purified recombinant HDAC enzymes were used in standard HDAC activity assays using Millipore's HDAC Fluorometric Assay Kit (Millipore, Billerica, MA, USA), according to the manufacturer's protocol. A FluoroStar Omega plate reader (BMG Biosciences) was used for fluorescent detection. Purified recombinant active HDACs 1, 5 and 8 were purchased from Millipore/Upstate.

H1437 cells = experiment: ATP-based cell viability, H1437 vs H1299; set-up: species or system human; details: cell viability by ATP measurements
Text: Supplementary Material Chang et al
This supplementary material contains:
-Supplementary Figure Legends
-Supplementary Figures 1- 4
Please see separate excel file for Supplementary Table 1.
Supplementary Figure Legends
Supplementary Figure 1: Expanded panel of cell lines showing distinct relative sensitivities to
TSA vs. depsipeptide. Lung cancer cell lines not depicted in the main Figure 1A are shown in A)
and an expanded set of breast cancer cells and HMES and melanomacells and melanocytes in
Supplementary Figure 2: Differential response to HDAC inhibitors is a general phenomenon. A)
H1299 also by ATP measurements.
Supplementary Figure 3: HDAC ex pression levels may contribute to drug sensitivity. A)
B) HDAC 2 levels are similar in the cell line
Supplementary Figure 4: Validation of microarray gene expression differences in the
H1993/H2073 cell line pair confirmed overexpression of glutathione metabolism genes in H2073
(shown in A) and downregulation of chromatin interacting proteins (B).

[3] = system: total HDAC activity, C127 cells; experiment: Total HDAC activity in lysates from drug-treated cells; format: cell-based; details: 25 nM
Text: HDAC2 was purified as described below.

[4] = system: OCM3 uveal melanoma cells; experiment: MTS cell viability, OCM3; format: cell-based, human; details: 4 days
Protocol: as §1, §2

[5] = system: 348T immortalised normal human mammary epithelial cells; experiment: MTS cell viability, 348T; format: cell-based; details: 4 days
Protocol: as §1, §2

MCF-7 cells = experiment: MTS cell viability, MCF-7; format: cell-based, human; details: 4 days; for IC50: MCF-7 breast cancer line
Protocol: as §1, §2

H2009 cells = experiment: MTS cell viability, H2009; format: cell-based, human; details: H2009 NSCLC, 4 days
Protocol: as §1, §2

UACC62 melanoma cells = experiment: MTS cell viability, UACC62; format: cell-based, human; details: 4 days
Protocol: as §1, §2

[6] = system: HBEC3KT human bronchial epithelial cells; experiment: MTS cell viability, HBEC3KT; format: cell-based; details: 4 days
Protocol: as §1, §2

HCC366 cells = experiment: MTS cell viability, HCC366; format: cell-based, human; details: HCC366 NSCLC, 4 days
Protocol: as §1, §2

[7] = system: HBEC15KT human bronchial epithelial cells; experiment: MTS cell viability, HBEC15KT; format: cell-based; details: 4 days
Protocol: as §1, §2

H2086 cells = experiment: MTS cell viability, H2086; format: cell-based, human; details: H2086 NSCLC, 4 days
Protocol: as §1, §2

UACC257 melanoma cells = experiment: MTS cell viability, UACC257; format: cell-based, human; details: 4 days
Protocol: as §1, §2

[8] = biological target: purified recombinant HDAC8 (Homo sapiens, UniProt Q9BY41)
Text: as §3

[9] = system: acetylated tubulin in H358 cells; experiment: Western blot, acetylated tubulin; format: cell-based, human; details: 200 nM, 24 h
Protocol: Exponentially growing cells were treated with the appropriate compounds and harvested 4 or 24 h later in a standard nuclear lysis buffer and whole cell lysates were quantified. Equal amounts of total protein were loaded onto 4–12% Bis-Tris SDS gels and subjected to electrophoresis. After transferring onto nitrocellulose membranes, blots were probed for acetylated tubulin (Sigma, St Louis, MO, USA; T6793), acetylated histone 3 (Millipore/Upstate #06-599), acetylated histone 4 (Millipore/Upstate #07-329) or trimethylated histone 3 at lysine 9 (Millipore/Upstate #07-523). Actin (Santa Cruz, Santa Cruz, CA, USA; #1616) and HDAC1 (Affinity Bioreagents, Rockford, IL, USA; #PA1-860) were probed as loading controls. Quantification of bands in films was performed using two independent methods, which yielded similar results, Image J (NIH public software) and Quantity one (Bio-Rad, Hercules, CA, USA). The average of the two methods±s.e.m. is shown as specified in figure legends. For the MDR western analysis, a primary antibody against P-glycoprotein from Calbiochem (Darmstadt, Germany) was used according to the manufacturer's recommendations and HSP90 (Santa Cruz) was used as a loading control.

recombinant murine HDAC2 = biological target: T1, recombinant murine HDAC2 (Mus musculus, UniProt P70288); experiment: HDAC fluorometric activity assay, purified HDAC2; format: biochemical; details: 400 nM
T1 construct: The murine HDAC2 open reading frame was amplified by PCR from the plasmid pME18S-HDAC2; FLAG (DYKDDDDK) (C); made in house; host or cells: Sf9 insect cells (baculovirus)
T1 sequence (P70288 whole entry): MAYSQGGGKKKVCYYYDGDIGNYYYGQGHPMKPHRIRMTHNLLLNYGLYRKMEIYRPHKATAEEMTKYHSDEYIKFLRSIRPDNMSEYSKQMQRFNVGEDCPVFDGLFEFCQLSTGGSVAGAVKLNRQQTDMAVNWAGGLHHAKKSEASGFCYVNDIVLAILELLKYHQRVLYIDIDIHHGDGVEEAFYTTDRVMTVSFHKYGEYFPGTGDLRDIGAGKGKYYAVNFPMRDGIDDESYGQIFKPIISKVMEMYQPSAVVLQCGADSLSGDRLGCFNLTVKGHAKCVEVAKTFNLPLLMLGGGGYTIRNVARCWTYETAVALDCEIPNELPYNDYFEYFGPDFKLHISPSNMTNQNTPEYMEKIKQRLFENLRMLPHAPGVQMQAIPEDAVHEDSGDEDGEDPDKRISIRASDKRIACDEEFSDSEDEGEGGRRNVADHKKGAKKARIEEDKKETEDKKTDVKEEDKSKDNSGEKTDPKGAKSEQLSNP
Text: Cell extracts or purified recombinant HDAC enzymes were used in standard HDAC activity assays using Millipore's HDAC Fluorometric Assay Kit (Millipore, Billerica, MA, USA), according to the manufacturer's protocol. A FluoroStar Omega plate reader (BMG Biosciences) was used for fluorescent detection. […] HDAC2 was purified as described below.

purified recombinant HDAC8, sequence (Q9BY41 whole entry, species assumed): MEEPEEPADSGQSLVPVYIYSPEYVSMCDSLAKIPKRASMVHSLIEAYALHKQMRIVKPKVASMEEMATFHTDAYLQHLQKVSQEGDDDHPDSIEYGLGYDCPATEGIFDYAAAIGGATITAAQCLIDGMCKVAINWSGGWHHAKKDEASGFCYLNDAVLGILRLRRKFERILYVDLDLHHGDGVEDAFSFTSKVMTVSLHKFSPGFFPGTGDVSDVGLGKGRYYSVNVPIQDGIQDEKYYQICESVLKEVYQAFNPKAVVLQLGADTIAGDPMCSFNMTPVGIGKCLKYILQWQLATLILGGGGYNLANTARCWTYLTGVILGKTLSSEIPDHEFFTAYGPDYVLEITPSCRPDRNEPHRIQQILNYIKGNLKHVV
purified recombinant HDAC1, sequence (Q13547 whole entry, species assumed): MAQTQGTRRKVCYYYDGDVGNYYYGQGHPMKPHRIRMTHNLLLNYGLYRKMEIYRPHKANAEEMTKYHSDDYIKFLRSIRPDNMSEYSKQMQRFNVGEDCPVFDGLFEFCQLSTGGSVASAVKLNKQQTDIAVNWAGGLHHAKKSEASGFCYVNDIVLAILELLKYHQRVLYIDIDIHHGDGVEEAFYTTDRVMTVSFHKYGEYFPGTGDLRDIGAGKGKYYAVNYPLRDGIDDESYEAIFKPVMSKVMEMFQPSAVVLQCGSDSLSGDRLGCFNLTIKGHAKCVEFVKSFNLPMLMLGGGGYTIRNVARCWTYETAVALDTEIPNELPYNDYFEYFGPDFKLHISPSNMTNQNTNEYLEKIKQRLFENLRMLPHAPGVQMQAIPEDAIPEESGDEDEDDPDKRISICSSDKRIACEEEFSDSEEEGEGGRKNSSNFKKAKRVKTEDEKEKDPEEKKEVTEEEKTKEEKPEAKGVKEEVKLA

Row | SMILES | IC50 (MALME3M melanoma cells) | IC50 (Melanocytes) | IC50 [1] | IC50 (H2085 cells) | IC50 [4] | IC50 [5] | IC50 (MCF-7 cells) | IC50 (H2009 cells) | IC50 (UACC62 melanoma cells) | IC50 [6] | IC50 (HCC366 cells) | IC50 [7] | IC50 (H2086 cells) | IC50 (UACC257 melanoma cells) | other results
1 | C/C=C1\NC(=O)[C@H]2CSSCC/C=C/[C@H](CC(=O)N[C@H](C(C)C)C(=O)N2)OC(=O)[C@H](C(C)C)NC1=O [Depsipeptide, depsipeptide] | 0.7 nM | 0.9 nM | 4.9 nM | 6.9 nM | 1.5 nM | 1.3 nM | 4.2 nM | 0.9 nM | 0.9 nM | 1 nM | 3.1 nM | 2.5 nM | 3.8 nM | 1.6 nM | inhibition of HDAC1 activity [2]: no inhibition; sensitivity of H1437 compared to H1299 (H1437 cells): greater sensitivity; total HDAC activity in lysates made from treated cells vs DMSO-treated cells [3]: strong inhibition; surviving population (MCF-7 cells; MCF7 cells): 30–40%; inhibition of HDAC8 activity ([8]; 50 nM): no effect; inhibition of HDAC8 activity ([8]; 0.5 μM): no effect
2 | CC(/C=C/C(=O)NO)=C\[C@@H](C)C(=O)c1ccc(N(C)C)cc1 [TSA, trichostatin A] | 240 nM | 284 nM | 260 nM | 390 nM | 220 nM | 81 nM | 90 nM | 38.3 nM | 238 nM | 318 nM | 147 nM | 295 nM | 275 nM | 222 nM | acetylated tubulin levels [9]: increase; inhibition of HDAC2 activity (recombinant murine HDAC2): fully inhibited

Source: article PMC3251870 (British Journal of Cancer, 2011)
